According to US7192981B2, “3,4-dihydroxyhydrocinnamic acid derivative” (Bionutrigen Co., Ltd., priority 2005, dated 2007):

Tested on: isolated rat epididymal adipocytes
Test: Glucose transport assay (2-DOG uptake)
Type: cell-based
Details: for glucose transport at higher doses: rat adipocytes, 4 h

| Molecule | glucose transport at higher doses | glucose transport (insulin at the indicated concentrations, 30 min) |
| --- | --- | --- |
| COc1ccc(Cl)cc1C(=O)NCCc1ccc(S(=O)(=O)NC(=O)NC2CCCCC2)cc1 [glyburide, reference compound] | decreased |  |
| CN(C)C(=N)N=C(N)N [metformin, reference compound] | remained unchanged |  |
| insulin |  | increased glucose transport in a dose-dependent manner |
